This note sets out measurements from DBAASP.

Molecules are shown by their SMILES. Converted amounts (≈) assume the structure as drawn.

Some test systems named below: Pseudomonas aeruginosa; Salmonella typhimurium; Micrococcus luteus; Proteus mirabilis; Shigella dysenteriae; Staphylococcus aureus; Klebsiella pneumoniae; Bacillus subtilis; Escherichia coli; Serratia marcescens; Escherichia coli B; Bacillus subtilis 168; Escherichia coli UB1005; Acinetobacter baumannii.
Assay in all cases: ≥ marks a high value that may be exact or a test limit, other limits are often not marked, values filed in µg/mL are converted to µM
Test [1] concerns Staphylococcus aureus ATCC 6538.
In test [2] the test system is Escherichia coli DH5alpha.
The test system of test [3] is Staphylococcus epidermidis ATCC 12228.
Test [4] has as its system Micrococcus luteus ATCC 4698.
Test [5] has as its system Staphylococcus epidermidis.
For test [6], the system named is Escherichia coli ATCC 25922.
The subject of test [7] is Staphylococcus aureus ATCC 2592.
Test [8] relates to Candida albicans F7-39/IDE99.
The subject of test [9] is Staphylococcus aureus TK784.
Test [10] relates to Klebsiella pneumoniae ATCC 10031.
The test system of test [11] is Bacillus subtilis ATCC 6633.
In test [12] the test system is Pseudomonas aeruginosa ATCC 27853.
The test system of test [13] is Micrococcus luteus ATCC 10240.
The test system of test [14] is Staphylococcus aureus ATCC 6538P.
Test [15] concerns Salmonella enterica subsp. enterica serovar Typhimurium ATCC 14028.
The subject of test [16] is Shigella dysenteriae ATCC 9752.
Test [17] has as its system Salmonella enterica subsp. enterica serovar Typhimurium C77-31.
In test [18] the test system is Staphylococcus aureus ATCC 29213.
Test [19] deals with Staphylococcus aureus ATCC 25923.

As usually defined, the MIC is the lowest concentration that inhibits growth of the organism. A high value points to weaker potency. As for `CC(C)C[C@H](NC(=O)[C@H](C)NC(=O)CNC(=O)[C@H](CC(C)C)NC(=O)[C@@H](N)Cc1ccccc1)C(=O)N[C@@H](Cc1ccccc1)C(=O)N[C@@H](CCCCN)C(=O)N[C@@H](C)C(=O)N[C@@H](CC(C)C)C(=O)N[C@@H](CO)C(=O)N[C@@H](CCCCN)C(=O)N[C@@H](CC(C)C)C(=O)N[C@H](C(=O)O)C(C)C` [FLGALFKALSKLV], the MIC is 7.82 µM (≈ 11 µg/mL) in [1], ≥ 35.5 µM in [2], 12.8 µM (≈ 18 µg/mL) in test [3] and 4.27 µM (≈ 6 µg/mL) in test [4].

For the compound `CC(C)C[C@H](NC(=O)[C@H](C)NC(=O)CNC(=O)[C@H](CC(C)C)NC(=O)[C@@H](N)Cc1ccccc1)C(=O)N[C@@H](Cc1ccccc1)C(=O)N[C@@H](CCCCN)C(=O)N[C@H](C(=O)N[C@@H](C)C(=O)N[C@@H](CO)C(=O)N[C@@H](CCCCN)C(=O)N[C@H](C(=O)O)C(C)C)C(C)C` [FLGALFKVASKV], the MIC was ≥ 156 µM in test [5]; > 156 µM in the test with Pseudomonas aeruginosa; ≥ 156 µM in the test with Salmonella typhimurium; ≥ 156 µM with Micrococcus luteus; ≥ 156 µM against Proteus mirabilis; ≥ 156 µM against Shigella dysenteriae. The MIC against Staphylococcus aureus was > 156 µM; against Klebsiella pneumoniae it was > 156 µM; with Bacillus subtilis it was ≥ 156 µM; against Escherichia coli, > 156 µM.

For `CC[C@H](C)[C@@H]1NC(=O)[C@H](CCCCN)NC(=O)[C@@H](NC(=O)[C@H](CCSC)NC(=O)[C@H](CC(C)C)NC(=O)[C@@H]2CCCN2C(=O)[C@H](Cc2ccccc2)NC(=O)[C@H](CC(C)C)NC(=O)[C@H](CC(C)C)NC(=O)[C@@H](N)Cc2ccccc2)CSSC[C@@H](C(=O)O)NC(=O)[C@H](CCCCN)NC(=O)CNC(=O)[C@H](CCC(N)=O)NC1=O` [FLLFPLMCKIQGKC], the MIC against Klebsiella pneumoniae was > 60.9 µM; in [6], > 60.9 µM; in the test on Serratia marcescens, ≥ 60.9 µM; in [7], 22.9 µM (≈ 37.5 µg/mL).

`CC(C)C[C@H](NC(=O)[C@H](CC(C)C)NC(=O)[C@H](CCCCN)NC(=O)[C@H](CO)NC(=O)[C@H](CC(C)C)NC(=O)[C@H](C)NC(=O)[C@H](CCCCN)NC(=O)[C@H](Cc1ccccc1)NC(=O)[C@H](CC(C)C)NC(=O)[C@H](C)NC(=O)CNC(=O)[C@@H](NC(=O)[C@@H](N)Cc1ccccc1)C(C)C)C(=O)O` [FVGALFKALSKLL]: the MIC is 8.53 µM (≈ 12 µg/mL) in test [1], ≥ 35.5 µM in test [2], 15.6 µM (≈ 22 µg/mL) in test [3] and 4.27 µM (≈ 6 µg/mL) in test [4].

As for `CC(C)C[C@H](NC(=O)[C@@H](NC(=O)[C@H](CCCCN)NC(=O)[C@H](CCCCN)NC(=O)[C@H](CC(C)C)NC(=O)[C@H](CC(C)C)NC(=O)[C@H](CCCCN)NC(=O)[C@H](CC(C)C)NC(=O)[C@H](C)NC(=O)[C@H](CCCCN)NC(=O)CNC(=O)[C@H](Cc1ccccc1)NC(=O)CN)C(C)C)C(N)=O` [GFGKALKLLKKVL], the MIC was found to be 10 µM (≈ 14.1 µg/mL) in the test with Pseudomonas aeruginosa; 5 µM (≈ 7.07 µg/mL) in test [8]; 10 µM (≈ 14.1 µg/mL) in the test on Staphylococcus aureus; 2.5 µM (≈ 3.53 µg/mL) in the test on Escherichia coli B; 1.8 µM (≈ 2.54 µg/mL) against Bacillus subtilis 168.

With `CC(C)C[C@H](NC(=O)[C@H](CC(C)C)NC(=O)[C@H](CCCCN)NC(=O)[C@H](CCCCN)NC(=O)[C@H](CC(C)C)NC(=O)[C@H](Cc1c[nH]c2ccccc12)NC(=O)[C@H](CCCCN)NC(=O)[C@H](CC(C)C)NC(=O)[C@H](CC(C)C)NC(=O)[C@@H](N)CCCCN)C(=O)N[C@@H](CCCCN)C(N)=O` [KLLKWLKKLLK], the MIC in test [9] amounted to 5.67 µM (≈ 7.99 µg/mL); in test [10], 1.42 µM (≈ 2 µg/mL); in test [11] it was 1.42 µM (≈ 2 µg/mL); in test [3] it was 1.42 µM (≈ 2 µg/mL); in test [12], 5.67 µM (≈ 7.99 µg/mL); in [13] it was 1.42 µM (≈ 2 µg/mL). Moreover, the MIC in [14], in [6], in test [15] and in test [16] was 1.42 µM (≈ 2 µg/mL) throughout.

Regarding `CC(C)C[C@H](NC(=O)[C@H](Cc1c[nH]c2ccccc12)NC(=O)[C@H](CCCCN)NC(=O)[C@H](CC(C)C)NC(=O)[C@H](CC(C)C)NC(=O)[C@H](Cc1c[nH]c2ccccc12)NC(=O)[C@@H](N)CCCCN)C(N)=O` [KWLLKWL], the MIC is ≥ 81.1 µM in [9]; ≥ 81.1 µM in [10]; 20.3 µM (≈ 20 µg/mL) in test [11]; 81.1 µM (≈ 79.9 µg/mL) in test [3]; 81.1 µM (≈ 79.9 µg/mL) in test [12]; ≥ 81.1 µM in [13]. Also, the MIC in test [14] was 20.3 µM (≈ 20 µg/mL); in test [6], 40.6 µM (≈ 40 µg/mL); in [15] it was > 81.1 µM; in test [16] it was ≥ 81.1 µM.

Turning to `CC(C)C[C@H](NC(=O)[C@@H](N)Cc1c[nH]c2ccccc12)C(=O)N[C@@H](CCCCN)C(=O)N[C@@H](CCCCN)C(=O)N[C@@H](Cc1c[nH]c2ccccc12)C(N)=O` [WLKKW], the MIC was ≥ 105 µM in [9]; ≥ 105 µM in [10]; ≥ 105 µM in test [11]; > 105 µM in test [3]; > 105 µM in test [12]; ≥ 105 µM in test [13]. For the same compound, the MIC in test [14] was ≥ 105 µM; in test [6], > 105 µM; in test [15] it was > 105 µM; in [16] it was ≥ 105 µM.

Turning to `CC(C)C[C@H](NC(=O)[C@H](CC(C)C)NC(=O)[C@@H](N)Cc1c[nH]c2ccccc12)C(=O)N[C@@H](CCCCN)C(=O)N[C@@H](Cc1c[nH]c2ccccc12)C(N)=O` [WLLKW], the MIC in [9] was ≥ 107 µM; in test [10] it was ≥ 107 µM; in [11], ≥ 107 µM; in test [3] it was > 107 µM; in [12] it was > 107 µM; in test [13], ≥ 107 µM. The MIC was ≥ 107 µM in [14], > 107 µM in test [6], > 107 µM in [15] and ≥ 107 µM in test [16].

Take `CC(C)C[C@H](NC(=O)[C@H](CCCN=C(N)N)NC(=O)[C@H](Cc1c[nH]c2ccccc12)NC(=O)[C@H](CCCN=C(N)N)NC(=O)[C@H](CC(C)C)NC(=O)[C@H](CCCN=C(N)N)NC(=O)[C@H](Cc1c[nH]c2ccccc12)NC(=O)[C@H](CCCN=C(N)N)NC(=O)[C@H](CC(C)C)NC(=O)[C@H](CCCN=C(N)N)NC(=O)[C@@H](N)Cc1c[nH]c2ccccc12)C(=O)N[C@@H](CCCN=C(N)N)C(N)=O` [WRLRWRLRWRLR]: the MIC worked out at 2 µM (≈ 3.7 µg/mL) in [17]; 4 µM (≈ 7.41 µg/mL) in the test on Pseudomonas aeruginosa; 1 µM (≈ 1.85 µg/mL) in test [18]; 2 µM (≈ 3.7 µg/mL) in the test on Escherichia coli UB1005; 2.83 µM (≈ 5.24 µg/mL) in the test on Acinetobacter baumannii; 2 µM (≈ 3.7 µg/mL) in [19]. For the same compound, the MIC is 2 µM (≈ 3.7 µg/mL) in test [3], 1 µM (≈ 1.85 µg/mL) in the test with Staphylococcus aureus, 4 µM (≈ 7.41 µg/mL) in test [6] and 2 µM (≈ 3.7 µg/mL) against Escherichia coli.
